# Data taken from patent publication EP0345100A1, “Preparation of PAF receptors and method of quantity determination of PAF” (INSTITUT PASTEUR, priority 1988, dated 1989).
# Biological target: T1, récepteur du PAF (Oryctolagus cuniculus, UniProt G1TEI7)
# T1 construct: préparation membranaire de plaquettes de lapin; from tissue; host or cells: rabbit blood platelets, lysed by freeze/thaw, membrane pellet
# Assay: Competitive binding of [³H]PAF to rabbit platelet membrane preparations (radioreceptor assay, vacuum filtration)
# Parameters: species or system lapin
# Procedure: - 1 Aliquot de préparation membranaire de plaquettes de lapin (A) - 1 Aliquot de préparation de récepteur du PAF conforme à l'invention (B), - PAF marqué au Tritium, activité spécifique 56 Ci/mmole (DU PONT DE NEMOURS (Boston MA, USA).) - PAF non marqué (BACHEM, Budendorf, Suisse).
# Des aliquots de préparations membranaires de plaquettes de lapin (∼100 µg) sont incubés pour un volume final de 200 µl de solution contenant 1 nM de /³H/PAF (15300 cpm) et soit une quantité de PAF non marqué connue (gamme de référence), soit un aliquot de dilution de l'extrait à doser. […]
# Les filtres sont placés dans des fioles de comptage avec 4 ml de liquide scintillant (Atomlight NEN). La radioactivité est quantifiée sur compteur à scintillation LKB Rack beta 1214.
# La différence entre la quantité de [³H]PAF lié aux membranes en absence et en présence d'un excès de PAF non marqué (1000 x [³H] PAF) est considérée comme liaison spé-cifique maximale (B˙). […]
# 4.2. […] Le pourcentage de [³H ]PAF lié spécifiquement aux préparations en présence de ces différentes concentrations est déterminé par rapport à la quantité de [³H ]PAF lié spécifiquement en absence de PAF standard non marqué (B/Bo : B : cpm de [³H ]PAF lié aux membranes en pré-sence de PAF standard (liaison non spécifique déduite). Bo : cpm de [³H ]PAF lié aux membranes en absence de PAF standard (liaison non spécifique déduite). […]
# T1 sequence (G1TEI7 1-342): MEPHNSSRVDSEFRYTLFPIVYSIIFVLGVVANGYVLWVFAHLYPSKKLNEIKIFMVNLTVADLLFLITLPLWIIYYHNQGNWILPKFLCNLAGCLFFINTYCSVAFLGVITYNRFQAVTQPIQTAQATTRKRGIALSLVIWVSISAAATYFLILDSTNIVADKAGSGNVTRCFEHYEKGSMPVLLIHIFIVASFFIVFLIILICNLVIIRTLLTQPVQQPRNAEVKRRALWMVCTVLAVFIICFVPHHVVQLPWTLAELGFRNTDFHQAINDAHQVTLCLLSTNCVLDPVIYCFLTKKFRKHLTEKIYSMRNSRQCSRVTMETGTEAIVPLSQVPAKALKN
Compound,"ED₅₀ (dose de PAF standard nécessaire pour inhiber 50 % de la liaison spécifique) (1 nM [³H]PAF, + 4° C, 1 heure 30, four experiments taken at random)","reconnaissance par le site de liaison utilisé pour le dosage (dose maximale testée : 10⁻⁶M, Figure 2 (B/Bo))"
1-0-alkyl-2-acétyl-sn-glycérol-3-phosphorylcholine [PAF standard],"0,63 + 0,15 ng/tube",
CCCCCCCCCCCCCCCCOC[C@@H](O)COP(=O)([O-])OCC[N+](C)(C)C [lyso-PAF],,ne sont pas reconnus
